From ChEMBL document CHEMBL1137091, “Carbonic anhydrase inhibitors. Design of selective, membrane-impermeant inhibitors targeting the human tumor-associated isozyme IX” (J Med Chem, 2004)

Key:
Homo sapiens [1] = species on record: Homo sapiens; assay: Percentage inhibition for the inhibition of Cl-/NO3- exchange measured for AE1 transfected cells (before and after treatment with CAI); assay type: functional
Homo sapiens [2] = species on record: Homo sapiens; assay: Inhibitory concentration for the half maximal inhibition of Cl-/NO3- exchange measured for AE1 transfected cells (before and after treatment with CAI); assay type: functional
Homo sapiens [3] = species on record: Homo sapiens; assay: Relative transport activity for the inhibition of Cl-/NO3- exchange measured for AE1 transfected cells (before and after treatment with CAI); assay type: functional
Carbonic anhydrase 9 = Carbonic anhydrase 9 (Homo sapiens, UniProt Q16790)
Description: Inhibition constant evaluated for the inhibition of human CA IX (Carbonic anhydrase IX)

Carbonic anhydrase 4 = target: T1, Carbonic anhydrase 4 (Bos taurus, UniProt Q95323)
T1 sequence (Q95323 whole entry): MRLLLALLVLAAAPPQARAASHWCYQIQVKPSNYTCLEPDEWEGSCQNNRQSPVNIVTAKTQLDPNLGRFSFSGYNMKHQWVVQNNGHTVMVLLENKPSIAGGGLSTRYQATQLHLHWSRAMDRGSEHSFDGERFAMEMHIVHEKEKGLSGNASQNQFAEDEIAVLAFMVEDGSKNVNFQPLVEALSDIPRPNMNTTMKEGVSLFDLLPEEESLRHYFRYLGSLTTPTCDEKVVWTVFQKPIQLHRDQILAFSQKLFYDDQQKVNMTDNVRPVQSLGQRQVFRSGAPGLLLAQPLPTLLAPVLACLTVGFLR
Description: Inhibition constant evaluated for the inhibition of bovine CA IV (Carbonic anhydrase IV)

Carbonic anhydrase 1 = Carbonic anhydrase 1 (Homo sapiens, UniProt P00915)
Sequence of Carbonic anhydrase 1 (P00915 whole entry): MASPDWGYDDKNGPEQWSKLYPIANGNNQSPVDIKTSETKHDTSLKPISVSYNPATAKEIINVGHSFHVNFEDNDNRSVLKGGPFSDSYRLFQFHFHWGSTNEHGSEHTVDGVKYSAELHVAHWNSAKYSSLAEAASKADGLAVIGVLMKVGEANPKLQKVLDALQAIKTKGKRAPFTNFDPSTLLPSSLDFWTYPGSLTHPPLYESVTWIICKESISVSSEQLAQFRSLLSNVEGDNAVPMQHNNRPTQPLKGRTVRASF
Description: Inhibition constant evaluated for the inhibition of human CA I (Carbonic anhydrase I)

Carbonic anhydrase 2 = Carbonic anhydrase 2 (Homo sapiens, UniProt P00918)
Description: Inhibition constant evaluated for the inhibition of human CA II (Carbonic anhydrase II)

Row | Compound | Inhibition (Homo sapiens [1]) [%] | IC50 (Homo sapiens [2]) [µM] | Activity (Homo sapiens [3]) | Ki (Carbonic anhydrase 9) [µM] | Ki (Carbonic anhydrase 4) [µM] | Ki (Carbonic anhydrase 1) [µM] | Ki (Carbonic anhydrase 2) [µM]
1 | CCCCc1cc(-c2ccccc2)cc(CCCC)[n+]1-c1ccc(S(=O)(=O)Nc2nnc(S(N)(=O)=O)s2)cc1.[O-][Cl+3]([O-])([O-])[O-] | 34 | 1510 | 0.709 |  |  |  | 
2 | Cc1c2cc(c(C)[n+]1-c1ccc(S(=O)(=O)Nc3nnc(S(N)(=O)=O)s3)cc1)CCCCCCCCC2.[O-][Cl+3]([O-])([O-])[O-] |  |  | 1 | 0.012 | 0.0046 | 0.003 | 0.00137
3 | CCCc1cc(-c2ccccc2)cc(CCC)[n+]1-c1ccc(S(=O)(=O)Nc2nnc(S(N)(=O)=O)s2)cc1.[O-][Cl+3]([O-])([O-])[O-] | 32 | 126 | 0.651 |  |  |  | 
